# Assay results published in patent US20210069333A1, “CANNABINOIDS IN COMBINATION WITH NON-CANNABINOID CHEMOTHERAPEUTIC AGENTS” (GW Pharma Limited, priority 2008, published 2021).
# Key:
# [1] = tested on: human U87 MG astrocytoma cells; experiment: Cell viability of human U87 MG astrocytoma cells in culture; type: cell-based; settings: for IC50: Homo sapiens, U-87 MG, read-out: IC50 μM (pure cannabinoids); for reduction of cell viability in combination with THC vs agent alone: U87 MG, combined with THC, FIGS. 4 and 5
# Protocol: Tetrahydrocannabinol (THC) and cannabidiol (CBD) in the form of cannabis plant extracts were dissolved in ethanol to a concentration of 100 mM this was stored at −20° C. until required.
# Before use the cannabis plant extracts were further diluted to the desired concentration, ensuring that the concentration of ethanol was below 0.001%.
# U87 human glioma cells were used throughout this experiment. The cells were maintained at 37° C. in a humidified atmosphere with 5% CO2 and 95% air.
# Cells were cultured in a 75 cm^2 culture flask in Dulbecco's Modified Eagle Medium (DMEM), which had been supplemented with 4 mM L-glutamine, 100 units/ml penicillin, […], 1% sodium pyruvate, 1% non-essential amino acids and 10% heat-inactivated fetal bovine serum.
# The viability of the human U87 MG astrocytoma cells were examined at various cannabinoid concentrations. The THC and CBD extracts were compared against pure THC and CBD.
# The methods used were as described in Example 1 above.
# The action of THC, CBD, and a 1:1 ratio mix of THC and CBD were studied at different concentrations on two cell lines: U87MG and T98G.
# Cell viability assays were performed as described in Example 1 above.
# [2] = tested on: Human U87 MG astrocytoma cells xenografted to nude mice; experiment: U87 MG astrocytoma xenograft in nude mice, tumour volume; type: in vivo; settings: 15 mg/kg per day, injected peritumourally
# Protocol: Human U87 MG astrocytoma cells were xenografted to nude mice and the test compounds were injected peritumourally at a concentration of 15 mg/kg per day.
# U87MG cells = experiment: Induced cell death in U87MG cells with ATG1 silencing or pan-caspase inhibitor; settings: cell death induced by the THC:CBD combination, FIGS. 3b and 3c
Compound,IC50 [1] [µM],reduction of cell viability in combination with THC vs agent alone [1],other results
"C=C(C)[C@@H]1CCC(C)=C[C@H]1c1c(O)cc(CCCCC)cc1O [CBD, cannabidiol]",0.47,–,–
"CCCCCc1cc(O)c2c(c1)OC(C)(C)[C@@H]1CCC(C)=C[C@@H]21 [THC, tetrahydrocannabinol]",0.37,–,Tumour volume relative to zero time following 15 days of treatment [2]: 5.1 ± 0.4
N.N.[Cl][Pt][Cl] [cisplatin],–,more efficient at reducing cell viability,–
CC/C(=C(\c1ccccc1)c1ccc(OCCN(C)C)cc1)c1ccccc1 [tamoxifen],–,more efficient at reducing cell viability,–
Z-VAD,–,–,effect on induced cell death (U87MG cells): prevent induced cell death
